Data reported in PubChem BioAssay (NCI).
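Growth conditions: 96-well plates. Treatment: test compound, 48 hours, 5 concentrations. Analysis: linear interpolation between bracketing concentrations; unreached endpoints set to highest concentration. TGI denotes the concentration required for complete inhibition of growth.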

Key:
Test in all cases: NCI tumour cell line growth inhibition, 48 h
CAKI-1 renal = system: CAKI-1 renal
DU-145 prostate = system: DU-145 prostate
HCC-2998 colon = system: HCC-2998 colon
HL-60(TB) leukemia = system: HL-60(TB) leukemia
HOP-62 NSCLC = system: HOP-62 NSCLC
KM12 colon = system: KM12 colon
MCF7 breast = system: MCF7 breast
OVCAR-4 ovarian = system: OVCAR-4 ovarian
OVCAR-5 ovarian = system: OVCAR-5 ovarian
OVCAR-8 ovarian = system: OVCAR-8 ovarian
PC-3 prostate = system: PC-3 prostate
RXF 393 renal = system: RXF 393 renal
SF-295 CNS = system: SF-295 CNS
SK-MEL-28 melanoma = system: SK-MEL-28 melanoma
SN12C renal = system: SN12C renal
SNB-19 CNS = system: SNB-19 CNS
UACC-257 melanoma = system: UACC-257 melanoma

CN(C)c1ccc(C=Nc2ccc(-c3nc4ccccc4s3)cc2)cc1
TGI (CAKI-1 renal): > 100 µM | TGI (DU-145 prostate): > 100 µM | TGI (HCC-2998 colon): 44.5 µM | TGI (HL-60(TB) leukemia): 0.525 µM | TGI (HOP-62 NSCLC): 82.8 µM | TGI (KM12 colon): > 100 µM | TGI (MCF7 breast): 76.5 µM | TGI (OVCAR-4 ovarian): > 100 µM | TGI (OVCAR-5 ovarian): > 100 µM | TGI (OVCAR-8 ovarian): > 100 µM | TGI (PC-3 prostate): 71.5 µM | TGI (RXF 393 renal): 52.2 µM | TGI (SF-295 CNS): 29.9 µM | TGI (SK-MEL-28 melanoma): > 100 µM | TGI (SN12C renal): > 100 µM | TGI (SNB-19 CNS): > 100 µM | TGI (UACC-257 melanoma): 82.8 µM

C=C(C)C1CC[C@@](C)(O)[C@H](C#N)C1 (some centres undefined)
TGI (CAKI-1 renal): > 100 µM | TGI (DU-145 prostate): > 100 µM | TGI (HCC-2998 colon): > 100 µM | TGI (HL-60(TB) leukemia): > 100 µM | TGI (HOP-62 NSCLC): > 100 µM | TGI (KM12 colon): > 100 µM | TGI (MCF7 breast): > 100 µM | TGI (OVCAR-4 ovarian): > 100 µM | TGI (OVCAR-5 ovarian): > 100 µM | TGI (OVCAR-8 ovarian): > 100 µM | TGI (PC-3 prostate): > 100 µM | TGI (RXF 393 renal): > 100 µM | TGI (SF-295 CNS): > 100 µM | TGI (SK-MEL-28 melanoma): > 100 µM | TGI (SN12C renal): > 100 µM | TGI (SNB-19 CNS): > 100 µM | TGI (UACC-257 melanoma): > 100 µM

CN(C)[C@@H]1C(=O)C(C(=O)NCNc2nc3n[nH]nc3c(=O)[nH]2)=C(O)[C@@]2(O)C(=O)C3=C(O)c4c(O)cccc4[C@@](C)(O)[C@H]3C[C@@H]12
TGI (CAKI-1 renal): > 100 µM | TGI (DU-145 prostate): 22.5 µM | TGI (HCC-2998 colon): > 100 µM | TGI (HL-60(TB) leukemia): 11.6 µM | TGI (HOP-62 NSCLC): 27.2 µM | TGI (KM12 colon): > 100 µM | TGI (MCF7 breast): > 100 µM | TGI (OVCAR-4 ovarian): > 58.3 µM | TGI (OVCAR-5 ovarian): 98.6 µM | TGI (OVCAR-8 ovarian): > 100 µM | TGI (PC-3 prostate): > 100 µM | TGI (RXF 393 renal): 5.37 µM | TGI (SF-295 CNS): > 100 µM | TGI (SK-MEL-28 melanoma): 22.1 µM | TGI (SN12C renal): > 91.2 µM | TGI (SNB-19 CNS): > 100 µM | TGI (UACC-257 melanoma): > 87.8 µM

O=C1Nc2ccc(Br)cc2/C1=N/S(=O)(=O)O
TGI (CAKI-1 renal): > 100 µM | TGI (DU-145 prostate): > 100 µM | TGI (HCC-2998 colon): > 100 µM | TGI (HL-60(TB) leukemia): 46.7 µM | TGI (HOP-62 NSCLC): > 100 µM | TGI (KM12 colon): > 100 µM | TGI (MCF7 breast): 40 µM | TGI (OVCAR-4 ovarian): 44.1 µM | TGI (OVCAR-5 ovarian): 79.3 µM | TGI (OVCAR-8 ovarian): > 100 µM | TGI (PC-3 prostate): 83.3 µM | TGI (RXF 393 renal): > 100 µM | TGI (SF-295 CNS): > 100 µM | TGI (SK-MEL-28 melanoma): > 100 µM | TGI (SN12C renal): 37 µM | TGI (SNB-19 CNS): > 100 µM | TGI (UACC-257 melanoma): 31.4 µM

Cn1nnc2c(C(N)=S)ncn2c1=O
TGI (CAKI-1 renal): > 100 µM | TGI (DU-145 prostate): > 100 µM | TGI (HCC-2998 colon): > 100 µM | TGI (HL-60(TB) leukemia): > 100 µM | TGI (HOP-62 NSCLC): > 100 µM | TGI (KM12 colon): > 100 µM | TGI (MCF7 breast): > 100 µM | TGI (OVCAR-4 ovarian): > 100 µM | TGI (OVCAR-5 ovarian): > 100 µM | TGI (OVCAR-8 ovarian): > 100 µM | TGI (PC-3 prostate): > 100 µM | TGI (RXF 393 renal): > 100 µM | TGI (SF-295 CNS): > 100 µM | TGI (SK-MEL-28 melanoma): > 100 µM | TGI (SN12C renal): > 100 µM | TGI (SNB-19 CNS): > 100 µM | TGI (UACC-257 melanoma): > 100 µM

CCCCN=NNc1cn(C2OC(CO)C(O)C2O)c(=O)[nH]c1=O (centres undefined)
TGI (CAKI-1 renal): > 100 µM | TGI (DU-145 prostate): > 100 µM | TGI (HCC-2998 colon): > 100 µM | TGI (HL-60(TB) leukemia): > 100 µM | TGI (HOP-62 NSCLC): > 100 µM | TGI (KM12 colon): > 100 µM | TGI (MCF7 breast): > 100 µM | TGI (OVCAR-4 ovarian): > 100 µM | TGI (OVCAR-5 ovarian): > 100 µM | TGI (OVCAR-8 ovarian): > 100 µM | TGI (PC-3 prostate): > 100 µM | TGI (RXF 393 renal): > 100 µM | TGI (SF-295 CNS): > 100 µM | TGI (SK-MEL-28 melanoma): > 100 µM | TGI (SN12C renal): > 100 µM | TGI (SNB-19 CNS): > 100 µM | TGI (UACC-257 melanoma): > 100 µM

COCn1cc(C2=C(C)C(=O)C(C)=C(C)C2=O)cn1
TGI (CAKI-1 renal): > 100 µM | TGI (DU-145 prostate): > 100 µM | TGI (HCC-2998 colon): > 100 µM | TGI (HL-60(TB) leukemia): 24.3 µM | TGI (HOP-62 NSCLC): > 100 µM | TGI (KM12 colon): > 100 µM | TGI (MCF7 breast): > 100 µM | TGI (OVCAR-4 ovarian): 31.7 µM | TGI (OVCAR-5 ovarian): > 100 µM | TGI (OVCAR-8 ovarian): 36.8 µM | TGI (PC-3 prostate): > 100 µM | TGI (RXF 393 renal): > 100 µM | TGI (SF-295 CNS): > 100 µM | TGI (SK-MEL-28 melanoma): > 100 µM | TGI (SN12C renal): > 100 µM | TGI (SNB-19 CNS): > 100 µM | TGI (UACC-257 melanoma): > 100 µM
